# Test results published in patent US20240336583A1, “BENZO-RING-CONTAINING DERIVATIVE, AND PREPARATION METHOD THEREFOR AND USE THEREOF” (SHUJING BIOPHARMA CO., LTD, priority 2021, published 2024).
# How the values were obtained:
# Format in all cases: in vivo
# ICR mice [1] = experiment: Mouse righting reflex test (ED50, sequential method, tail vein bolus); settings: for ED50: Mus musculus, read-out: ED50 (median effective dose: dose required to cause 50% of the mice to lose the righting reflex); for ED50 / ED50 (median effective dose: dose required to cause 50% of the mice to lose the righting reflex): tail vein bolus within 10 seconds, sequential method, AOT425 software; for Symptoms in test animals in ED50 test: after tail vein administration
# Method: The ED50 value and LD50 value of the compound of the present invention were measured using a sequential method. The TI (therapeutic index) of the drug was calculated.
# (§1) SPF grade ICR mice (Pizhou Oriental Breeding Co., Ltd.), 22-28 g, 15 mice/group. All mice received 3 days of quarantine and acclimation and were transferred from the feeding room to the laboratory for acclimation 1 h prior to the experiment.
# (§2) The test compound was dissolved in 20% fat emulsion or purified water to prepare a 5 mg/ml drug liquid.
# (§3) During the test, firstly a mouse was dosed at the tail vein, and the bolus injection was completed within 10 seconds. […] Finally, the AOT425 Statpm software was used to calculate the ED50 (median effective dose: the dose required to cause 50% of the mice to lose the righting reflex by the test) and LD50 (median lethal dose: the dose required to cause 50% of the mice to die by the test) values. The formula for TI (therapeutic index) was: TI=LD50/ED50.
# [2] = Mouse LD50 test (sequential method, tail vein bolus); settings: mouse, in vivo, intravenous; ICR mice, tail vein bolus within 10 seconds, sequential method, AOT425 software; read-out: LD50 (median lethal dose: dose required to cause 50% of the mice to die)
# Method: (§4) The ED50 value and LD50 value of the compound of the present invention were measured using a sequential method. The TI (therapeutic index) of the drug was calculated. The animal symptoms in the experimental process were observed, and the drug effect, safety and side effects of the compound of the present invention were examined.
# as §1, §2, §3
# ICR mice [3] = experiment: as above; settings: TI=LD50/ED50, ICR mice, tail vein
# Method: as §4, §1, §2, §3
SMILES,ED50 (ICR mice [1]) [mg/kg],Symptoms in test animals in ED50 test (ICR mice [1]),LD50 [2] [mg/kg],TI (therapeutic index) (ICR mice [3]),ED50 (median effective dose: dose required to cause 50% of the mice to lose the righting reflex) (ICR mice [1]) [mg/kg]
"CC(C)c1cccc(C(C)C)c1O [Propofol, reference compound]",12.9,Some animals exhibited body twitching and,55.9,4.3,
"CC1COc2c(F)cc(C(C)C3CC3)c(OCOP(=O)([O-])[O-])c21.[Na+].[Na+] (single isomer, unassigned) [Example 10A1, sodium (5-(1-cyclopropyl)-7-fluoro-3-methyl-2,3-dihydrobenzofuran-4-yl) oxymethyl phosphate]",,The animals' condition was stable after,,,
"CC1COc2c(F)cc(C(C)C3CC3)c(O)c21 (single isomer, unassigned) [Example 4, 5-(1-cyclopropylethyl)-7-fluoro-3-methyl-2,3-dihydrobenzofuran-4-ol]",,The animals' condition was stable after,62.5,7.0,8.9
"CC1COc2c(F)cc(C(C)C3CC3)c(O)c21 (single isomer, unassigned) [Example 11A1, 5-(1-cyclopropylethyl)-7-fluoro-3-methyl-2,3-dihydrobenzofuran-4-ol]",,The animals' condition was stable after,,,4.0
"CC(C)c1cccc(C(C)C)c1OCOP(=O)(O)O [Fospropofol sodium, reference compound]",112,,,,
